Where two headings read alike, the source gives them in different places.
Assays:
[1] = format: in vivo, human; conditions: for dose limiting toxicity (reversible increases in serum creatinine or calculated serum creatinine clearance): 3.1 mg/m2
Experimental: Experimental Design: LB-100 was administered intravenously daily for 3 days in 21-day cycles in a 3+3 dose-escalation design. The primary goal was to determine the maximum tolerated dose and recommended phase 2 dose (ClinicalTrials.gov: NCT01837667).
Eligible patients were aged 18 years or older with proven progressive solid tumors who had failed standard treatments. Patients had to have a life expectancy of at least 12 weeks, an ECOG performance status of 0 or 1, and be able to give informed consent. […] They must not have any other uncontrolled systemic disease. Women of childbearing potential had to have a negative serum or urine pregnancy test result.
An open-label, dose-escalation, phase I study was performed to assess the safety, tolerability, and activity of LB-100 administered for 3 consecutive days every 3 weeks. Pharmacokinetic studies were planned at the maximum tolerable dose (MTD). The starting dose, 0.25 mg/m^2, 1/15th of the highest non-severely toxic dose in dogs, and plan of dose escalation was specified by the FDA. The study was approved by the human investigations committee at each study center and is registered at clinicaltrials.gov: NCT01837667.
LB-100 was supplied as a single use solution. Initially, LB-100 was administered in 50 mL of saline over 15 minutes. […] Dose escalation was prohibited within any cohort. Patients were eligible to receive up to 6 cycles of study therapy, unless unacceptable toxicity, disease progression, or inter-current illness required discontinuation. More than 6 cycles were allowed in the absence of progression and toxicity. Because of cardiac and renal toxicity at high doses in animal toxicology studies, patients had extensive monitoring including ECG, MUGA or echocardiogram, cardiac troponins, and BNP prior to every cycle. Blood chemistries, urinalysis, hematologic profile and vital signs were monitored prior to and on day 1, 3, 8, 15, and 22 of each cycle. Laboratory parameters were tabulated by maximum NCI-CTCAE (Version 4.0) severity grade. A safety review committee assessed all clinical data every 2 weeks and approved dose escalation between cohorts.
Doses of LB-100 were escalated in groups of three patients. […] When a potential DLT occurred, three new patients were entered at that dose. If another DLT occurred, three additional patients were treated at the previous non-DLT dose to determine the safety of that level for phase 2 trials.
Response to treatment was assessed using RECIST version 1.1. All patients with measurable disease, who completed 2 cycles of LB-100 and had at least 1 post-baseline tumor assessment, were evaluable for efficacy. Patients receiving any LB-100 were evaluable for safety. The severity of adverse events and laboratory abnormalities is reported according to NCI-CTCAE version 4.0 and coded using Medical Dictionary for Regulatory Activities.

CD8+ or CD4+ T cells = assay: Human allogeneic mixed lymphocyte reaction, T cells with monocyte-derived dendritic cells (Example 8); format: cell-based
Experimental: The effect of LB-100 on T-cells was assessed in human allogeneic mixed lymphocyte reactions, in which CD8+ or CD4+ T cells were co-cultured with […] monocyte-derived dendritic cells. […] The effect of LB-100 plus anti-PD-1 antibody was investigated on CD4+ T cells in the same assay.

## CN1CCN(C(=O)C2C(C(=O)O)[C@H]3CC[C@@H]2O3)CC1 (stereo partly shown) [LB-100]
[1]; 0.25-2.33 mg/m^2
  DLT during the first 6 dose levels: no DLT
[1]; Grade 1-2
  HEADACHE, patients n (%): 3 (10.3%)
[1]; Grade 3
  HEADACHE, patients n (%): 0
[1]; Grade 4
  HEADACHE, patients n (%): 0
[1]; Grade 5
  ABDOMINAL DISCOMFORT, patients n (%): 0
  ABDOMINAL DISTENSION, patients n (%): 0
  ACCELERATED HYPERTENSION, patients n (%): 0
  ALANINE AMINOTRANSFERASE INCREASED, patients n (%): 0
  ANAEMIA, patients n (%): 0
  ARTHRALGIA, patients n (%): 0
  BLOOD ALKALINE PHOSPHATASE INCREASED, patients n (%): 0
  BLOOD UREA INCREASED, patients n (%): 0
  CANDIDIASIS, patients n (%): 0
  CHEST PAIN, patients n (%): 0
  CHILLS, patients n (%): 0
  CONSTIPATION, patients n (%): 0
  DECREASED APPETITE, patients n (%): 0
  DERMATITIS ACNEIFORM, patients n (%): 0
  DIARRHOEA, patients n (%): 0
  DIZZINESS, patients n (%): 0
  EJECTION FRACTION DECREASED, patients n (%): 0
  ELECTROCARDIOGRAM QT PROLONGED, patients n (%): 0
  GAIT DISTURBANCE, patients n (%): 0
  GASTROINTESTINAL DISORDER, patients n (%): 0
  GENERALISED OEDEMA, patients n (%): 0
  GINGIVAL PAIN, patients n (%): 0
  HEADACHE, patients n (%): 0
  HYPERCALCAEMIA, patients n (%): 0
  HYPERKALAEMIA, patients n (%): 0
  HYPERNATRAEMIA, patients n (%): 0
  HYPERTENSION, patients n (%): 0
  HYPOAESTHESIA, patients n (%): 0
  HYPOALBUMINAEMLA, patients n (%): 0
  HYPOKINESIA, patients n (%): 0
  HYPOTENSION, patients n (%): 0
  HYPOXIA, patients n (%): 0
  INSOMNIA, patients n (%): 0
  MUCOSAL INFLAMMATION, patients n (%): 0
  MUSCLE TWITCHING, patients n (%): 0
  MUSCULAR WEAKNESS, patients n (%): 0
  NAUSEA, patients n (%): 0
  NEUROPATHY PERIPHERAL, patients n (%): 0
  NEUTROPENIA, patients n (%): 0
  OEDEMA PERIPHERAL, patients n (%): 0
  OEDEMA, patients n (%): 0
  PAIN OF SKIN, patients n (%): 0
  PERIPHERAL COLDNESS, patients n (%): 0
  PERIPHERAL SENSORY NEUROPATHY, patients n (%): 0
  PLATELET COUNT DECREASED, patients n (%): 0
  PLEURAL EFFUSION, patients n (%): 0
  PROTEINURIA, patients n (%): 0
  PYREXIA, patients n (%): 0
  SINUS TACHYCARDIA, patients n (%): 0
[1]; daily for 3 days every 3 weeks, i.v.
  recommended phase 2 dose: 2.33 mg/m2
[1]; human, in vivo
  Probable or possible study drug related Grade 3 adverse events: 6 (20.7%) patients (%)
  dose limiting toxicity (reversible increases in serum creatinine or calculated serum creatinine clearance): 2/4
[1]; in vivo
  symptomatic toxicity: no symptomatic toxicity other than reversible mild to moderate fatigue
  toxicities suggestive of autoimmune activity: no patient experienced toxicities suggestive of autoimmune activity
  dose limiting toxicity (reversible increases in serum creatinine or calculated serum creatinine clearance): Two
CD8+ or CD4+ T cells
  IFNγ secretion in CD4+ T cells: increase
  T cell proliferation in CD8+ and CD4+ cells: dose dependent increase
  Tbet in CD4+ T cells: dose dependent increase
  co-stimulatory molecule OX40 expression on T cells: dose dependent increase
CD8+ or CD4+ T cells; co-cultured with monocytes derived DC
  PD-1 expression on human CD4 T cells: reduced PD-1 expression
